Experimental data published in patent US20080242660A1, “Therapeutic Agent for Vasospasm Accompanying Bypass Operation” (ASAHI KASEI PHARMA CORPORATION, priority 2004, published 2008).
Where a name gives a salt, the structure may show the parent alone.

Tested on: coronary vasospasm
Assay: Treatment of coronary vasospasm after off pump beating coronary artery bypass grafting (angiography, case reports)
Assay type: in vivo, patient
Method: To a patient who had been subjected to off pump beating coronary artery bypass grafting (in which a left internal thoracic artery was anastomosed to each of a left anterior descending coronary artery and a diagonal branch), during and after the operation, isosorbide dinitrate (2 to 5 mg/hour), diltiazem (1 to 2 mg/hour), nicorandil (4 to 6 mg/hour), and catecholamines (1 to 2 μg/kg per minute of dopamine and 1 to 2 μg/kg per minute of dobutamine) were continuously intravenously administered. However, after three hours of the operation, severe coronary vasospasm occurred. The coronary vasospasm occurred in a right coronary artery which was not related to the bypass operation. Isosorbide dinitrate (total of 10 mg) was administered into the coronary artery, but it had no effect on the vasospasm. Therefore, fasudil hydrochloride was dissolved in a physiological saline and then the mixture was administered into the right coronary artery for 15 minutes at a rate of 1.5 mg/minute. As a result, the coronary vasospasm was resolved (see FIG. 1). At the occurrence of the vasospasm and after the administration of isosorbide dinitrate, the right coronary artery became thin like a thread due to the vasospasm and peripheral part thereof was not illustrated. However, after the administration of fasudil hydrochloride, the peripheral part was illustrated. […] After that, fasudil hydrochloride was dissolved in the physiological saline and the mixture was continuously administered into the vein for 72 hours (tapered from 10 mg/hour).
To a patient who had been subjected to off pump beating coronary artery bypass grafting (in which a saphenous vein graft was anastomosed from an aorta to a left anterior descending coronary artery), during and after the operation, isosorbide dinitrate (1 to 5 mg/hour), diltiazem (1 to 2 mg/hour), and catecholamines (1 to 2 μg/kg per minute of dopamine, dobutamine, and norepinephrine, respectively) were continuously intravenously administered. However, after five hours of the operation, severe coronary vasospasm occurred. The coronary vasospasm occurred in a right coronary artery and a left circumflex coronary artery which were not related to the bypass operation. Isosorbide dinitrate (total of 10 mg) was administered into the right coronary artery, but it had no effect on the vasospasm. Therefore, fasudil hydrochloride was dissolved in a physiological saline and then the mixture was administered into the right coronary artery for 15 minutes at a rate of 1.5 mg/minute As a result, the coronary vasospasm was resolved (see FIG. 1). At the occurrence of the vasospasm and after the administration of isosorbide dinitrate, the distal part thereof from the portion where the vasospasm had occurred was not illustrated. However, after the administration of fasudil hydrochloride, the peripheral part was illustrated. […] After that, fasudil hydrochloride was dissolved in the physiological saline and the mixture was continuously administered into the vein for 72 hours (tapered from 10 mg/hour).
To a patient who had been subjected to off pump beating coronary artery bypass grafting (in which a right internal thoracic artery was anastomosed to a left anterior descending coronary artery and a left internal thoracic artery was anastomosed to a posterolateral branch of a left circumflex coronary artery), during the operation, isosorbide dinitrate (1 to 3 mg/hour), diltiazem (0.5 to 1 mg/hour), nicorandil (2 to 3 mg/hour), and catecholamines (1 to 5 μg/kg per minute of dopamine, 1 to 2 μg/kg per minute of dobutamine, and 1 to 2 μg/min of norepinephrine) were continuously intravenously administered. However, severe coronary vasospasm occurred immediately thereafter. The vasospasm occurred in the right coronary artery which was not related to the bypass operation and the bypass artery grafts (the right internal thoracic artery and the left internal thoracic artery) while the anastomosis region was left open. […]

SMILES: O=S(=O)(c1cccc2cnccc12)N1CCCNCC1 [fasudil hydrochloride]
- recurrence of coronary vasospasm (Example 1 patient, continuous intravenous administration for 72 hours (tapered from 10 mg/hour)): did not occur again
- effect on the coronary vasospasm (Example 1 patient, fasudil hydrochloride in physiological saline into the right coronary artery for 15 minutes at 1.5 mg/minute): resolved
- recurrence of coronary vasospasm (Example 2 patient, continuous intravenous administration for 72 hours (tapered from 10 mg/hour)): did not occur again
- effect on the coronary vasospasm (Example 2 patient, fasudil hydrochloride in physiological saline into the right coronary artery for 15 minutes at 1.5 mg/minute): resolved
- recurrence of coronary vasospasm (Example 3 patient, continuous intravenous administration for 48 hours (tapered from 30 mg/hour)): did not occur again
- effect on the coronary vasospasm (Example 3 patient, fasudil hydrochloride in physiological saline into each of the blood vessels for 15 minutes at 1.5 mg/minute): resolved
